Test results published in US11845752B2, “Substituted imidazo[1,5-a]pyrazines for the treatment of hepatitis B” (ALIGOS THERAPEUTICS, INC., priority 2020, dated 2023).

system: HBV; test: HBV-DNA antiviral assay using HepG2.117 cells (intracellular HBV DNA by qPCR); assay type: cell-based, HBV genotype D; conditions: HBV DNA inhibition, 3 days incubation, read-out: EC50
Summary of the method: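 Read-outs: cell-lysate HBV DNA copies by qPCR (interpolated from gBlock standard) and parallel cellular ATP luminescence for CC50, both normalised to 2% DMSO controls and fitted by non-linear regression. HepG2.117 Tet-off genotype D HBV cells, induced by doxycycline removal, exposed 3 days to 4-fold serial dilutions.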

**Q.** Which EC50 does the source give for `CC1Cn2c(c(C(=O)NCc3ccccc3-c3ccc(N)nn3)n(-c3ccc(OC4CC4)cc3)c2=O)CN1C(=O)c1ccc(Br)c(Cl)c1` (single isomer, unassigned) [Compound 10a, N-[[2-(6-aminopyridazin-3-yl)phenyl]methyl]-7-(4-bromo-3-chloro-benzoyl)-2-[4-(cyclopropoxy)phenyl]-6-methyl-3-oxo-6,8-dihydro-5H-imidazo[1,5-a]pyrazine-1-carboxamide] here?
**A.** 0.5 to 5 µM

**Q.** `CC1Cn2c(c(C(=O)NCc3ccccc3-c3ccnc(N)n3)n(-c3ccc(OC4CC4)cc3)c2=O)CN1C(=O)c1ccc(Br)c(Cl)c1` (single isomer, unassigned) [Compound 11b, N-[[2-(2-aminopyrimidin-4-yl)phenyl]methyl]-7-(4-bromo-3-chloro-benzoyl)-2-[4-(cyclopropoxy)phenyl]-6-methyl-3-oxo-6,8-dihydro-5H-imidazo[1,5-a]pyrazine-1-carboxamide] was tested. Which EC50 did it give?
**A.** 0.05 to 0.5 µM

**Q.** With `CC1Cn2c(c(C(=O)NCc3ccccc3-c3nccc(C(F)(F)F)n3)n(-c3ccc(N4CC5(CN(C)C5)C4)cc3)c2=O)CN1C(=O)c1ccc(Br)c(C(F)(F)F)c1` (single isomer, unassigned) [Compound 98b] as the compound, how does the EC50 read?
**A.** 0.5 to 5 µM

**Q.** `CC1Cn2c(c(C(=O)NCc3ccccc3-c3ncccn3)n(-c3ccc(OC[C@@H](O)C(F)(F)F)cc3)c2=O)CN1C(=O)c1ccc(Br)c(C(F)(F)F)c1` (stereo in doubt) [Compound 71b, (6S*)-7-[4-bromo-3-(trifluoromethyl)benzoyl]-6-methyl-3-oxo-N-{[2-(pyrimidin-2-yl)phenyl]methyl}-2-{4-[(2R)-3,3,3-trifluoro-2-hydroxypropoxy]phenyl}-5H,6H,8H-imidazo[1,5-a]pyrazine-1-carboxamide] was tested. Which EC50 did it give?
**A.** 0.05 to 0.5 µM

**Q.** For `CC1Cn2c(c(C(=O)NCc3ccccc3-c3ncccn3)n(-c3ccc4c(c3)nnn4CC(F)(F)F)c2=O)CN1C(=O)c1ccc(Br)c(C(F)(F)F)c1` (single isomer, unassigned) [Compound 103b], which EC50 is on record?
**A.** < 0.05 µM

**Q.** How did the EC50 turn out when `CC1Cn2c(c(C(=O)NCc3ccccc3-n3cc(N)cn3)n(-c3ccc(OC4CC4)cc3)c2=O)CN1C(=O)c1ccc(Br)c(Cl)c1` (single isomer, unassigned) [Compound 19b] was run?
**A.** 0.05 to 0.5 µM

**Q.** `CC1Cn2c(c(C(=O)NCc3ccccc3-c3cc(N)cnn3)n(-c3ccc(OC4CC4)cc3)c2=O)CN1C(=O)c1ccc(Br)c(C(F)(F)F)c1` (single isomer, unassigned) [Compound 43b] was tested. Which EC50 did it give?
**A.** 0.05 to 0.5 µM

**Q.** Which EC50 does the source give for `CC1Cn2c(c(C(=O)NCc3ccccc3-c3ncccn3)n(-c3ccc4oncc4c3)c2=O)CN1C(=O)c1ccc(Br)c(C(F)(F)F)c1` (single isomer, unassigned) [Compound 108b] here?
**A.** 0.5 to 5 µM

**Q.** How did the EC50 turn out when `CC1Cn2c(c(C(=O)NCc3c(F)cccc3-c3cccnn3)n(-c3ccc(OC4CC4)cc3)c2=O)CN1C(=O)c1ccc(Br)c(C(F)(F)F)c1` (single isomer, unassigned) [Compound 50b] was run?
**A.** < 0.05 µM

**Q.** For `CC1Cn2c(c(C(=O)NCc3ccccc3-c3ccncn3)n(-c3ccc(N4CC5(CN(C)C5)C4)cc3)c2=O)CN1C(=O)c1ccc(Br)c(C(F)(F)F)c1` (single isomer, unassigned) [Compound 73a, (6R*)-7-[4-bromo-3-(trifluoromethyl)benzoyl]-6-methyl-2-(4-{6-methyl-2,6-diazaspiro[3.3]heptan-2-yl}phenyl)-3-oxo-N-{[2-(pyrimidin-4-yl)phenyl]methyl}-5H,6H,8H-imidazo[1,5-a]pyrazine-1-carboxamide], which EC50 is on record?
**A.** 0.5 to 5 µM

**Q.** Which EC50 does the source give for `CC1Cn2c(c(C(=O)NCc3ccccc3-c3cccnn3)n(-c3ccc(OC[C@@H](C)O)cc3)c2=O)CN1C(=O)c1ccc(Br)c(C(F)(F)F)c1` (single isomer, unassigned) [Compound 56a] here?
**A.** 0.5 to 5 µM

same assay, conditions: Hepatitis B virus, HepG2.117, 72 h, HBV DNA inhibition, 3 days incubation, read-out: EC50

**Q.** For `CC1Cn2c(c(C(=O)NCc3c(F)cccc3-n3cccn3)n(-c3ccc(OC4CC4)cc3)c2=O)CN1C(=O)c1ccc(Br)c(C(F)(F)F)c1` (single isomer, unassigned) [Compound 25a], which EC50 is on record?
**A.** 0.05 to 0.5 µM

**Q.** `CC1Cn2c(c(C(=O)NCc3ccccc3-c3ccncn3)n(-c3ccc(OC4CC4)cc3)c2=O)CN1C(=O)c1ccc(Br)c(C(F)(F)F)c1` (single isomer, unassigned) [Compound 13a, 7-[4-bromo-3-(trifluoromethyl)benzoyl]-2-[4-(cyclopropoxy)phenyl]-6-methyl-3-oxo-N-[(2-pyrimidin-4-ylphenyl)methyl]-6,8-dihydro-5H-imidazo[1,5-a]pyrazine-1-carboxamide] was tested. Which EC50 did it give?
**A.** 0.05 to 0.5 µM

**Q.** For `C[C@H]1Cn2c(c(C(=O)NCc3ccccc3-c3ccncn3)n(-c3ccc(N4CCN(C)[C@H](C(F)(F)F)C4)cc3)c2=O)CN1C(=O)c1ccc(Br)c(C(F)(F)F)c1` (mixture of isomers) [Compound 87b, (6SR)-7-[4-bromo-3-(trifluoromethyl)benzoyl]-6-methyl-2-[4-[(3S)-4-methyl-3-(trifluoromethyl)piperazin-1-yl]phenyl]-3-oxo-N-[(2-pyrimidin-4-ylphenyl)methyl]-6,8-dihydro-5H-imidazo[1,5-a]pyrazine-1-carboxamide], which EC50 is on record?
**A.** < 0.05 µM

**Q.** How did the EC50 turn out when `C[C@H]1Cn2c(c(C(=O)NCc3ccccc3-c3ncccn3)n(-c3ccc4c(cnn4C[C@@H](O)C(F)(F)F)c3)c2=O)CN1C(=O)c1ccc(Br)c(C(F)(F)F)c1` (mixture of isomers) [Compound 101b, (6SR)-7-[4-bromo-3-(trifluoromethyl)benzoyl]-6-methyl-3-oxo-N-[(2-pyrimidin-2-ylphenyl)methyl]-2-[1-[(2R)-3,3,3-trifluoro-2-hydroxy-propyl]indazol-5-yl]-6,8-dihydro-5H-imidazo[1,5-a]pyrazine-1-carboxamide] was run?
**A.** < 0.05 µM

**Q.** How did the EC50 turn out when `C[C@@H]1Cn2c(c(C(=O)NCc3ccccc3-c3ncccn3)n(-c3ccc(OC[C@H](O)C(F)(F)F)cc3)c2=O)CN1C(=O)c1ccc(Br)c(C(F)(F)F)c1` (mixture of isomers) [Compound 75a, (6RS)-7-[4-bromo-3-(trifluoromethyl)benzoyl]-6-methyl-3-oxo-N-[(2-pyrimidin-2-ylphenyl)methyl]-2-[4-[(2S)-3,3,3-trifluoro-2-hydroxy-propoxy]phenyl]-6,8-dihydro-5H-imidazo[1,5-a]pyrazine-1-carboxamide] was run?
**A.** < 0.05 µM

**Q.** With `CC1(O)CCN(c2ccc(-n3c(C(=O)NCc4ccccc4)c4n(c3=O)CCN(C(=O)c3ccc(Br)c(Cl)c3)C4)cc2)C1` (single isomer, unassigned) [Compound 115a] as the compound, how does the EC50 read?
**A.** 0.05 to 0.5 µM

**Q.** `C[C@H]1Cn2c(c(C(=O)NCc3ccccc3-c3ncccn3)n(-c3ccc4c(cnn4C[C@H](O)C(F)(F)F)c3)c2=O)CN1C(=O)c1ccc(Br)c(C(F)(F)F)c1` (mixture of isomers) [Compound 102b, (6SR)-7-[4-bromo-3-(trifluoromethyl)benzoyl]-6-methyl-3-oxo-N-[(2-pyrimidin-2-ylphenyl)methyl]-2-[1-[(2S)-3,3,3-trifluoro-2-hydroxy-propyl]indazol-5-yl]-6,8-dihydro-5H-imidazo[1,5-a]pyrazine-1-carboxamide] was tested. Which EC50 did it give?
**A.** < 0.05 µM

**Q.** `CC1Cn2c(c(C(=O)NCc3ccccc3-c3cn(C)cn3)n(-c3ccc(OC4CC4)cc3)c2=O)CN1C(=O)c1ccc(Br)c(Cl)c1` (single isomer, unassigned) [Compound 18a, 7-(4-bromo-3-chloro-benzoyl)-2-[4-(cyclopropoxy)phenyl]-6-methyl-N-[[2-(1-methylimidazol-4-yl)phenyl]methyl]-3-oxo-6,8-dihydro-5H-imidazo[1,5-a]pyrazine-1-carboxamide] was tested. Which EC50 did it give?
**A.** 0.05 to 0.5 µM

**Q.** Which EC50 does the source give for `C[C@@H]1CN(c2ccc(-n3c(C(=O)NCc4ccccc4)c4n(c3=O)CCN(C(=O)c3ccc(Br)c(Cl)c3)C4)cc2)CCN1C` [Compound 116, N-benzyl-7-(4-bromo-3-chloro-benzoyl)-3-oxo-2-[4-[(3R)-3,4-dimethylpiperazin-1-yl]phenyl]-6,8-dihydro-5H-imidazo[1,5-a]pyrazine-1-carboxamide] here?
**A.** 0.05 to 0.5 µM

**Q.** How did the EC50 turn out when `C[C@H]1Cn2c(c(C(=O)NCc3ccccc3-c3ncccn3)n(-c3ccc(OC[C@H](O)C(F)(F)F)cc3)c2=O)CN1C(=O)c1ccc(Br)c(C(F)(F)F)c1` (mixture of isomers) [Compound 75b, (6SR)-7-[4-bromo-3-(trifluoromethyl)benzoyl]-6-methyl-3-oxo-N-[(2-pyrimidin-2-ylphenyl)methyl]-2-[4-[(2S)-3,3,3-trifluoro-2-hydroxy-propoxy]phenyl]-6,8-dihydro-5H-imidazo[1,5-a]pyrazine-1-carboxamide] was run?
**A.** 0.05 to 0.5 µM

**Q.** How did the EC50 turn out when `Cn1cnc2ccc(-n3c(C(=O)NCc4ccccc4)c4n(c3=O)CCN(C(=O)c3ccc(Br)c(Cl)c3)C4)cc21` [Compound 124, N-benzyl-7-(4-bromo-3-chloro-benzoyl)-2-(3-methylbenzimidazol-5-yl)-3-oxo-6,8-dihydro-5H-imidazo[1,5-a]pyrazine-1-carboxamide] was run?
**A.** 0.5 to 5 µM

**Q.** For `Cc1nnc(-c2ccccc2CNC(=O)c2c3n(c(=O)n2-c2ccc(OC4CC4)cc2)CC(C)N(C(=O)c2ccc(Br)c(C(F)(F)F)c2)C3)o1` (single isomer, unassigned) [Compound 47a], which EC50 is on record?
**A.** < 0.05 µM

**Q.** `C[C@@H]1Cn2c(c(C(=O)NCc3ccccc3-c3ccn(CC(F)(F)F)n3)n(-c3ccc4c(cnn4C[C@@H](C)O)c3)c2=O)CN1C(=O)c1ccc(Br)c(C(F)(F)F)c1` (mixture of isomers) [Compound 111a, (6RS)-7-[4-bromo-3-(trifluoromethyl)benzoyl]-2-[1-[(2R)-2-hydroxypropyl]indazol-5-yl]-6-methyl-3-oxo-N-[[2-[1-(2,2,2-trifluoroethyl)pyrazol-3-yl]phenyl]methyl]-6,8-dihydro-5H-imidazo[1,5-a]pyrazine-1-carboxamide] was tested. Which EC50 did it give?
**A.** 0.05 to 0.5 µM

**Q.** How did the EC50 turn out when `CC1Cn2c(c(C(=O)NCc3ccccc3-n3ccc(C(F)(F)F)n3)n(-c3ccc(N4CC5(CN(C)C5)C4)cc3)c2=O)CN1C(=O)c1ccc(Br)c(C(F)(F)F)c1` (single isomer, unassigned) [Compound 110a] was run?
**A.** 0.05 to 0.5 µM

**Q.** How did the EC50 turn out when `CC1Cn2c(c(C(=O)NCc3c(F)cccc3-c3nccc(N)n3)n(-c3ccc(OC4CC4)cc3)c2=O)CN1C(=O)c1ccc(Br)c(Cl)c1` (single isomer, unassigned) [Compound 31a] was run?
**A.** 0.05 to 0.5 µM
